# From patent US10820591B2, “Substituted sulfonyl amides for controlling animal pests” (Bayer Aktiengesellschaft, priority 2016, dated 2020)
# Test system: Meloidogyne incognita
# Test: Meloidogyne incognita test (sand, lettuce, gall formation)
# Format: in vivo
# Details: Meloidogyne incognita, 336 h, 20 ppm, after 14 days; read-out: nematicidal efficacy (formation of galls)
# Protocol: Meloidogyne incognita Test [table] To produce a suitable active compound preparation, 1 part by weight of active compound is mixed with the stated amount of solvent and the concentrate is diluted to the desired concentration with water. Vessels are filled with sand, active compound solution, an egg/larvae suspension of the southern root-knot nematode (Meloidogyne incognita) and lettuce seeds. The lettuce seeds germinate and the plants develop. The galls develop on the roots. After 14 days, the nematicidal efficacy in % is determined by the formation of galls. 100% means that no galls were found; 0% means that the number of galls on the treated plants corresponds to the untreated control.
row,SMILES,pest or weed control at 20 ppm [%]
1,O=C(NS(=O)(=O)c1ccc(Cl)cc1)c1cn(Cc2c(F)cccc2F)cn1 [I-001],90
2,COc1ccc(Cl)c(S(=O)(=O)NC(=O)c2cn(Cc3c(F)cccc3F)cn2)c1 [I-002],90
3,O=C(NS(=O)(=O)c1ccccc1Cl)c1cn(Cc2c(F)cccc2F)cn1 [I-003],90
4,Cc1nc(C(=O)NS(=O)(=O)C(C)C)cn1-c1c(F)cccc1F [I-005],100
5,O=C(NS(=O)(=O)c1ccccc1Cl)c1ncn(CCC(F)(F)F)c1I [I-008],100
6,CC(C)S(=O)(=O)NC(=O)c1ncn(CCC(F)(F)F)c1Br [I-009],90
7,O=C(NS(=O)(=O)c1ccccc1Cl)c1ncn(CCC(F)(F)F)c1Br [I-011],70
8,O=C(NS(=O)(=O)c1ccc(Cl)cc1)c1ncn(CCC(F)(F)F)c1Cl [I-012],100
9,O=C(NS(=O)(=O)c1ccc(Cl)cc1Cl)c1ncn(CC(F)(F)F)c1Cl [I-013],70
10,O=C(NS(=O)(=O)c1ccc(Cl)cc1Cl)c1cn(CC(F)(F)F)cn1 [I-014],90
11,O=C(NS(=O)(=O)c1cc(Cl)ccc1Cl)c1ncn(CCC(F)(F)F)c1Cl [I-015],90
12,O=C(NS(=O)(=O)c1c(Cl)cccc1Cl)c1ncn(CC(F)(F)F)c1Cl [I-016],90
13,Cc1ccccc1S(=O)(=O)NC(=O)c1cn(CCC(F)(F)F)cn1 [I-017],90
14,O=C(NS(=O)(=O)c1cccc(C(F)(F)F)c1)c1ncn(CCC(F)(F)F)c1Cl [I-018],90
15,O=C(NS(=O)(=O)c1cccc(C(F)(F)F)c1)c1cn(CC(F)(F)F)cn1 [I-019],90
16,O=C(NS(=O)(=O)c1cccc(Cl)c1)c1ncn(CCC(F)(F)F)c1Cl [I-020],90
17,O=C(NS(=O)(=O)c1ccc(C(F)(F)F)cc1)c1ncn(CCC(F)(F)F)c1Cl [I-021],90
18,Cc1ccc(S(=O)(=O)NC(=O)c2cn(CCC(F)(F)F)cn2)cc1 [I-022],90
19,Cc1ccc(S(=O)(=O)NC(=O)c2ncn(CC(F)(F)F)c2Cl)cc1 [I-023],90
20,Cc1ccc(S(=O)(=O)NC(=O)c2cn(CC(F)(F)F)cn2)cc1 [I-024],90
21,O=C(NS(=O)(=O)c1ccc(Cl)cc1)c1cn(CC(F)(F)F)cn1 [I-025],90

row,SMILES,pest or weed control at 20 ppm [%]
1,COc1ccc(S(=O)(=O)NC(=O)c2cn(CCC(F)(F)F)cn2)cc1 [I-026],90
2,COc1ccc(S(=O)(=O)NC(=O)c2cn(CC(F)(F)F)cn2)cc1 [I-027],90
3,O=C(NS(=O)(=O)Cc1ccccc1)c1ncn(CC(F)(F)F)c1Cl [I-029],70
4,O=C(NS(=O)(=O)c1ccc2c(c1Cl)OC(F)(F)O2)c1ncn(CCC(F)(F)F)c1Cl [I-030],90
5,CC(=O)Oc1ccc(S(=O)(=O)NC(=O)c2ncn(CCC(F)(F)F)c2Cl)cc1 [I-031],90
6,O=C(NS(=O)(=O)c1ccc(OC(F)(F)F)cc1)c1ncn(CCC(F)(F)F)c1Cl [I-033],90
7,CC(C)Oc1ccc(S(=O)(=O)NC(=O)c2ncn(CCC(F)(F)F)c2Cl)cc1 [I-034],90
8,COc1cc(C)c(S(=O)(=O)NC(=O)c2ncn(CCC(F)(F)F)c2Cl)c(C)c1 [I-036],100
9,CCCn1cnc(C(=O)NS(=O)(=O)c2ccccc2)c1Cl [I-038],90
10,CCCn1cnc(C(=O)NS(=O)(=O)c2ccc(OC)cc2)c1Cl [I-039],100
11,CCCn1cnc(C(=O)NS(=O)(=O)c2ccccc2Cl)c1Cl [I-040],70
12,CCCn1cnc(C(=O)NS(=O)(=O)c2cccc(Cl)c2)c1Cl [I-041],100
13,CCCn1cnc(C(=O)NS(=O)(=O)c2cccc(OC)c2)c1Cl [I-043],100
14,CC(C)CCn1cnc(C(=O)NS(=O)(=O)c2ccccc2)c1Cl [I-044],100
15,COc1ccc(S(=O)(=O)NC(=O)c2ncn(CCC(C)C)c2Cl)cc1 [I-045],100
16,CC(C)CCn1cnc(C(=O)NS(=O)(=O)c2ccc(Cl)cc2)c1Cl [I-046],100
17,COc1cccc(S(=O)(=O)NC(=O)c2ncn(CCC(C)C)c2Cl)c1 [I-047],100
18,COc1ccccc1S(=O)(=O)NC(=O)c1ncn(CCC(C)C)c1Cl [I-048],90
19,O=C(NS(=O)(=O)c1ccccc1)c1ncn(CCCCl)c1Cl [I-049],90
20,COc1ccc(S(=O)(=O)NC(=O)c2ncn(CCCCl)c2Cl)cc1 [I-050],90
21,O=C(NS(=O)(=O)c1cccc(Cl)c1)c1ncn(CCCCl)c1Cl [I-051],90

row,SMILES,pest or weed control at 20 ppm [%]
1,O=C(NS(=O)(=O)c1ccc(Cl)cc1)c1ncn(CCCCl)c1Cl [I-052],90
2,COc1cccc(S(=O)(=O)NC(=O)c2ncn(CCCCl)c2Cl)c1 [I-053],90
3,O=C(NS(=O)(=O)c1ccccc1)c1ncn(CCOC(F)(F)F)c1Cl [I-054],90
4,COc1ccc(S(=O)(=O)NC(=O)c2ncn(CCOC(F)(F)F)c2Cl)cc1 [I-055],90
5,O=C(NS(=O)(=O)c1cccc(Cl)c1)c1ncn(CCOC(F)(F)F)c1Cl [I-056],90
6,O=C(NS(=O)(=O)c1ccc(Cl)cc1)c1ncn(CCOC(F)(F)F)c1Cl [I-057],100
7,COc1cccc(S(=O)(=O)NC(=O)c2ncn(CCOC(F)(F)F)c2Cl)c1 [I-058],70
8,O=C(NS(=O)(=O)c1cccc(Cl)c1)c1ncn(C2CC2C(F)(F)F)c1Cl (stereo not shown) [I-061],90
9,O=C(NS(=O)(=O)c1ccc(Cl)cc1)c1ncn(C2CC2C(F)(F)F)c1Cl (stereo not shown) [I-062],90
10,COc1cccc(S(=O)(=O)NC(=O)c2ncn(C3CC3C(F)(F)F)c2Cl)c1 (stereo not shown) [I-063],100
11,COc1ccccc1S(=O)(=O)NC(=O)c1ncn(C2CC2C(F)(F)F)c1Cl (stereo not shown) [I-064],100
12,O=C(NS(=O)(=O)c1cccc(Cl)c1)c1ncn(C2CCCC2C(F)(F)F)c1Cl (stereo not shown) [I-065],90
13,O=C(NS(=O)(=O)c1ccc(Cl)cc1)c1ncn(C2CCCC2C(F)(F)F)c1Cl (stereo not shown) [I-066],90
14,COc1cccc(S(=O)(=O)NC(=O)c2ncn(C3CCCC3C(F)(F)F)c2Cl)c1 (stereo not shown) [I-067],70
15,COc1ccccc1S(=O)(=O)NC(=O)c1ncn(C2CCCC2C(F)(F)F)c1Cl (stereo not shown) [I-068],90
16,CC(CC(F)(F)F)n1cnc(C(=O)NS(=O)(=O)c2ccccc2)c1Cl (stereo not shown) [I-069],100
17,CC(CC(F)(F)F)n1cnc(C(=O)NS(=O)(=O)c2ccccc2Cl)c1Cl (stereo not shown) [I-071],100
18,CC(CC(F)(F)F)n1cnc(C(=O)NS(=O)(=O)c2cccc(Cl)c2)c1Cl (stereo not shown) [I-072],100
19,COc1cccc(S(=O)(=O)NC(=O)c2ncn(C(C)CC(F)(F)F)c2Cl)c1 (stereo not shown) [I-074],100
20,COc1ccccc1S(=O)(=O)NC(=O)c1ncn(C(C)CC(F)(F)F)c1Cl (stereo not shown) [I-075],70
21,COc1ccc(S(=O)(=O)NC(=O)c2ncn(CC(F)(F)C(F)(F)F)c2Cl)cc1 [I-076],90

row,SMILES,pest or weed control at 20 ppm [%]
1,O=C(NS(=O)(=O)c1ccccc1)c1ncn(CC(F)(F)C(F)(F)F)c1Cl [I-077],100
2,O=C(NS(=O)(=O)c1ccc(Cl)cc1)c1ncn(CC(F)(F)C(F)(F)F)c1Cl [I-078],100
3,O=C(NS(=O)(=O)c1cccc(Cl)c1)c1ncn(CC(F)(F)C(F)(F)F)c1Cl [I-079],100
4,O=C(NS(=O)(=O)c1ccccc1Cl)c1ncn(CC(F)(F)C(F)(F)F)c1Cl [I-080],90
5,COc1ccccc1S(=O)(=O)NC(=O)c1ncn(CC(F)(F)C(F)(F)F)c1Cl [I-081],90
6,COc1cccc(S(=O)(=O)NC(=O)c2ncn(CC(F)(F)C(F)(F)F)c2Cl)c1 [I-082],100
7,O=C(NS(=O)(=O)Cc1ccc(Cl)cc1)c1ncn(CCC(F)(F)F)c1Cl [I-084],100
8,O=C(NS(=O)(=O)c1cc(Cl)c(Cl)s1)c1ncn(CCC(F)(F)F)c1Cl [I-086],70
9,COc1cc(OC)cc(S(=O)(=O)NC(=O)c2ncn(CCC(F)(F)F)c2Cl)c1 [I-087],70
10,CCOc1ccc(S(=O)(=O)NC(=O)c2ncn(CCC(F)(F)F)c2Cl)cc1 [I-088],90
11,CSc1ccc(S(=O)(=O)NC(=O)c2ncn(CCC(F)(F)F)c2Cl)cc1 [I-089],100
12,CCCCOc1ccc(S(=O)(=O)NC(=O)c2ncn(CCC(F)(F)F)c2Cl)cc1 [I-090],90
13,CC(=O)Nc1ccc(S(=O)(=O)NC(=O)c2ncn(CCC(F)(F)F)c2Cl)cc1 [I-091],90
14,Cc1ccc(CS(=O)(=O)NC(=O)c2ncn(CCC(F)(F)F)c2Cl)cc1 [I-092],70
15,Cc1ccccc1CS(=O)(=O)NC(=O)c1ncn(CCC(F)(F)F)c1Cl [I-093],100
16,O=C(NS(=O)(=O)c1ccc(Cl)s1)c1ncn(CCC(F)(F)F)c1Cl [I-094],90
17,Cc1noc(C)c1S(=O)(=O)NC(=O)c1ncn(CCC(F)(F)F)c1Cl [I-095],90
18,COc1cc(OC)nc(Oc2ccc(S(=O)(=O)NC(=O)c3ncn(CCC(F)(F)F)c3Cl)cc2)n1 [I-096],90
19,O=C(NS(=O)(=O)c1cccs1)c1ncn(CCC(F)(F)F)c1Cl [I-097],90
